Patent US20140107121A1, “OLOPATADINE COMPOSITIONS AND USES THEREOF” (Alcon Research, Ltd., priority 2009, published 2014)

Experiment: Olopatadine-PDE4 Inhibitor Solubility Study
Type: physicochemical
Conditions: for effect on the aqueous solubility of olopatadine: 0.1-1% PDE4 inhibitor, FIGS. 1 and 2; for ratio of solubility enhancement: molecules of Compound per olopatadine molecule, straight line fit
Protocol: The following experiments were conducted to determine the effect of compounds of Formula I on the aqueous solubility of olopatadine.
Formulations with the compositions shown in Table 1 were prepared for olopatadine solubility testing as follows: ten milliliter samples of the formulations containing either 0%, 0.1%, 0.3%, or 1% of either Compound 1 (4-(3,5-Dichloropyridin-4-ylamino)-7-methoxy-8-(6-(4-methylpiperazin-1-yl)hexyloxy)quinolin-2(1H)-one) or Compound 2 (4-(3,5-Dichloropyridin-4-ylamino)-7-methoxy-8-(6-morpholinohexyloxy)quinolin-2(1H)-one) with at least 1% Olopatadine Hydrochloride as shown in Table 2 were prepared and adjusted to the target pH. […] The samples were mixed on a rocker and the pH was readjusted to the target pH after one and six days of mixing. On day seven, the samples were filtered through an Acrodisc 25 mm GXF/GHP 0.2 micron filter. The first three milliliters of filtrate were collected for final pH measurement and the next 3 milliliters of filtrate were filled into two 1.5 mL HPLC vials for the olopatadine assay (as free base) as shown below. Compound 1 was not assayed in samples A through H as an assay method was not available. Duplicate Compound 1/Olopatadine samples for the olopatadine assay were injected neat into the HPLC. Compound 2 and olopatadine were assayed in samples I, J, and K. Single Compound 2/Olopatadine samples were diluted 1/10 with 50/50 Acetonitrile/Water and injected into the UPLC.
The final pH of the filtered samples was measured with an Orion 525A+pH meter using a Ross Semimicro combination pH electrode and automatic temperature probe.
The Compound 1 and Olopatadine HPLC assay was conducted using the following conditions: • Instrument: Waters 2695 Separation Module and Waters 2487 • Variable Wavelength Ultraviolet-Visible Detector with Empower Software • Column: Phenomenex Ultracarb C8, 5 micron, 150×4.6 mm • Mobile Phase: • Solvent A=Acetonitrile • Solvent B=100 milliMolar Potassium Phosphate with 0.1% Triethylamine adjusted to pH 3.0 with NaOH/HC1 • Flowrate=1 milliliter/Minute • Gradient:
• Detection: 299 nm Ultraviolet Absorbance • Injection Volume: 20 microliters • Olopatadine Retention Time: About 6.2 minutes
The Compound 2 and Olopatadine UPLC assay was conducted using the following conditions: • Instrument: Waters ACQUITY UPLC System with TUV Detector and Empower Software • Column: Acquity UPLC BEH Shield C18, 1.7 micron, 100×2.1 mm • Mobile Phase: • Solvent A=0.1% Phosphoric Acid adjusted to pH 3.0 with NaOH/HCl • Solvent B=Acetonitrile • Flowrate=0.3 milliliter/Minute • Gradient:
• Detection: 285 nm Ultraviolet Absorbance • Injection Volume: 3 microliters • AL-53817 Retention Time: About 4.1 minutes • Olopatadine Retention Time: About 4.5 minutes
The target pH of samples E through K was 5.2 and the pH readings of the suspensions were close to this value prior to filtration. However, after filtration the solution pH was generally about 0.2 pH units higher than the suspension pH. This pH shift is commonly observed when measuring the pH of a suspension versus a solution. Duplicate samples of A through H were assayed and the duplicate values were averaged.
The milliMolar (mM) concentrations were calculated by dividing the % w/v concentrations by the molecular weight and multiplying by 10000.

| solubility of the PDE4 inhibitor in the formulation (pH 7.4) | SMILES | effect on the aqueous solubility of olopatadine | ratio of solubility enhancement |
| --- | --- | --- | --- |
|  | COc1ccc2c(Nc3c(Cl)cncc3Cl)cc(=O)[nH]c2c1OCCCCCCN1CCN(C)CC1 [Compound 1, 4-(3,5-Dichloropyridin-4-ylamino)-7-methoxy-8-(6-(4-methylpiperazin-1-yl)hexyloxy)quinolin-2(1H)-one] | increased the aqueous solubility of olopatadine in a linear concentration dependent manner | about two molecules of the Compounds to one olopatadine molecule |
| not sufficiently soluble | COc1ccc2c(Nc3c(Cl)cncc3Cl)cc(=O)[nH]c2c1OCCCCCCN1CCOCC1 [Compound 2, 4-(3,5-Dichloropyridin-4-ylamino)-7-methoxy-8-(6-morpholinohexyloxy)quinolin-2(1H)-one] | increased the aqueous solubility of olopatadine in a linear concentration dependent manner | about two molecules of the Compounds to one olopatadine molecule |
